One assay deals with T1, PDGFR (Homo sapiens, UniProt P09619).
T1 construct: expressed in transfected cells; host or cells: NIH 3T3 cells expressing PDGFR-β (lysate, Screening Lab, SUGEN)
The experiment in a line: Inhibition constant (Ki) against PDGFR. Conditions: data not shown. It counts as biochemical.

In the next assay the test system is C6 glioma tumors. Nature of the assay: C6 glioma tumors subcutaneously implanted in mice, oral administration. The format is in vivo. Conditions: 200 mg/kg/day, day 18 post-implantation, subcutaneous C6 tumors in BALB/c nu/nu mice. The protocol:
The following protocol can be used to perform xenograft experiments:
Female athymic mice (BALB/c, nu/nu) are obtained from Simonsen Laboratories (Gilroy, Calif.). All animals are maintained under clean-room conditions in Micro-isolator cages with Alpha-dri bedding. They receive sterile rodent chow and water ad libitum.
Cell lines are grown in appropriate medium (for example, MEM, DMEM, Ham's F10, or Ham's F12 plus 5%-10% fetal bovine serum (FBS) and 2 mM glutamine (GLN)). All cell culture media, glutamine, and fetal bovine serum are purchased from Gibco Life Technologies (Grand Island, N.Y.) unless otherwise specified. All cells are grown in a humid atmosphere of 90-95% air and 5-10% CO2 at 37° C. All cell lines are routinely subcultured twice a week and are negative for mycoplasma as determined by the Mycotect method (Gibco).
Cells are harvested at or near confluency with 0.05% Trypsin-EDTA and pelleted at 450 x g for 10 min. […] Tumor growth is measured over 3 to 6 weeks using venier calipers. Tumor volumes are calculated as a product of length×width×height unless otherwise indicated. P values are calculated using the Students t-test. […]
The compounds also maintain excellent activity when tested in vivo. […] Tumor growth was measured using vernier calipers and tumor volumes were calculated as the product of length×width×height. […]

The nature of assay [1]: Potency in vitro (data not shown).
The subject of the next assay is HUV-EC-C cells (VEGF). The experiment in a line: HUV-EC-C assay, VEGF-stimulated 3H-thymidine incorporation (HUVEC-VEGF). The format is cell-based. The settings on record: Homo sapiens; Table 1. The procedure: (§1) The following protocol may also be used to measure a compound's activity against PDGF-R, FGF-R, VEGF, aFGF or Flk-1/KDR, all of which are naturally expressed by HUV-EC cells.
(§2) 1. […] After cells have detached from the flask, add an equal volume of assay medium and transfer to a 50 ml sterile centrifuge tube (Fisher Scientific, catalogue no. 05-539-6).
(§3) 2. Wash the cells with about 35 ml assay medium in the 50 ml sterile centrifuge tube by adding the assay medium, centrifuge for 10 minutes at approximately 200x g, aspirate the supernatant, and resuspend with 35 ml D-PBS. Repeat the wash two more times with D-PBS, resuspend the cells in about 1 ml assay medium/is cm^2 of tissue culture flask. Assay medium consists of F12K medium (Gibco BRL, catalogue no. 21127-014) and 0.5% heat-inactivated fetal bovine serum. Count the cells with a Coulter Counter® (Coulter Electronics, Inc.) and add assay medium to the cells to obtain a concentration of 0.8-1.0×10^5 cells/ml.
(§4) 3. Add cells to 96-well flat-bottom plates at 100 μl/well or 0.8-1.0×10^4 cells/well, incubate −24h at 37° C., 5% CO2.
(§5) 1. Make up two-fold test compound titrations in separate 96-well plates, generally 50 μM on down to 0 μM. Use the same assay medium as mentioned in day 0, step 2 above. Titrations are made by adding […] of test compound at 200 μM (4X the final well concentration) to the top well of a particular plate column. Since the stock test compound is usually 20 mM in DMSO, the 200 μM drug concentration contains 2% DMSO.
(§6) A diluent made up to 2% DMSO in assay medium (F12K+0.5% fetal bovine serum) is used as diluent for the test compound titrations in order to dilute the test compound but keep the DMSO concentration constant. Add this diluent to the remaining wells in the column at 60 μl/well. Take 60 μl from the 120 μl of 200 μM test compound dilution in the top well of the column and mix with the 60 μl in the second well of the column. Take 60 μl from this well and mix with the 60 μl in the third well of the column, and so on until two-fold titrations are completed. When the next-to-the-last well is mixed, take 60 μl of the 120 μl in this well and discard it. Leave the last well with 60 μl of DMSO/media diluent as a non-test compound-containing control. Make 9 columns of titrated test compound, enough for triplicate wells each for: (1) VEGF (obtained from Pepro Tech Inc., catalogue no. 100-200, (2) endothelial cell growth factor (ECGF) (also known as acidic fibroblast growth factor, or aFGF) (obtained from Boehringer Mannheim Biochemica, catalogue no. 1439 600), or, (3) human PDGF B/B (1276-956, Boehringer Mannheim, Germany) and assay media control. ECGF comes as a preparation with sodium heparin.
(§7) 2. Transfer 50 μl/well of the test compound dilutions to the 96-well assay plates containing the 0.8-1.0×10^4 cells/100 μl/well of the HUV-EC-C cells from day 0 and incubate […] at 37° C., 5% CO2.
(§8) 3. In triplicate, add 50 μl well of […] VEGF, 20 ng/ml ECGF, or media control to each test compound condition. As with the test compounds, the growth factor concentrations are 4X the desired final concentration. Use the assay media from day 0 step 2 to make the concentrations of growth factors. Incubate approximately 24 hours at 37° C., 5% CO2. Each well will have 50 μl test compound dilution, 50 μl growth factor or media, and 100 μl cells, which calculates to 200 μl/well total. Thus the 4X concentrations of test compound and growth factors become 1X once everything has been added to the wells.
(§9) 1. Add ^3H-thymidine (Amersham, catalogue no. TRK-686) at 1 μCi/well (10 μl/well of 100 μCi/ml solution made up in RPMI media +10% heat-inactivated fetal bovine serum) and incubate ˜24 h at 37° C., 5% CO2. RPMI is obtained from Gibco BRL, catalogue no. 11875-051.
(§10) 1. Freeze plates overnight at −20° C. […]

In another assay the test system is HUV-EC-C cells (aFGF). Nature of the assay: HUV-EC-C assay, aFGF (ECGF)-stimulated 3H-thymidine incorporation (HUVEC-aFGF). It counts as cell-based. The settings on record: Homo sapiens; Table 1. The protocol: as §1, §2, §3, §4, §5, §6, §7, §8, §9, §10

This is an account of results in patent publication US7119090B2, “Pyrrole substituted 2-indolinone protein kinase inhibitors” (Sugen, Inc., priority 1998, dated 2006).

T1 sequence (P09619 33-1106): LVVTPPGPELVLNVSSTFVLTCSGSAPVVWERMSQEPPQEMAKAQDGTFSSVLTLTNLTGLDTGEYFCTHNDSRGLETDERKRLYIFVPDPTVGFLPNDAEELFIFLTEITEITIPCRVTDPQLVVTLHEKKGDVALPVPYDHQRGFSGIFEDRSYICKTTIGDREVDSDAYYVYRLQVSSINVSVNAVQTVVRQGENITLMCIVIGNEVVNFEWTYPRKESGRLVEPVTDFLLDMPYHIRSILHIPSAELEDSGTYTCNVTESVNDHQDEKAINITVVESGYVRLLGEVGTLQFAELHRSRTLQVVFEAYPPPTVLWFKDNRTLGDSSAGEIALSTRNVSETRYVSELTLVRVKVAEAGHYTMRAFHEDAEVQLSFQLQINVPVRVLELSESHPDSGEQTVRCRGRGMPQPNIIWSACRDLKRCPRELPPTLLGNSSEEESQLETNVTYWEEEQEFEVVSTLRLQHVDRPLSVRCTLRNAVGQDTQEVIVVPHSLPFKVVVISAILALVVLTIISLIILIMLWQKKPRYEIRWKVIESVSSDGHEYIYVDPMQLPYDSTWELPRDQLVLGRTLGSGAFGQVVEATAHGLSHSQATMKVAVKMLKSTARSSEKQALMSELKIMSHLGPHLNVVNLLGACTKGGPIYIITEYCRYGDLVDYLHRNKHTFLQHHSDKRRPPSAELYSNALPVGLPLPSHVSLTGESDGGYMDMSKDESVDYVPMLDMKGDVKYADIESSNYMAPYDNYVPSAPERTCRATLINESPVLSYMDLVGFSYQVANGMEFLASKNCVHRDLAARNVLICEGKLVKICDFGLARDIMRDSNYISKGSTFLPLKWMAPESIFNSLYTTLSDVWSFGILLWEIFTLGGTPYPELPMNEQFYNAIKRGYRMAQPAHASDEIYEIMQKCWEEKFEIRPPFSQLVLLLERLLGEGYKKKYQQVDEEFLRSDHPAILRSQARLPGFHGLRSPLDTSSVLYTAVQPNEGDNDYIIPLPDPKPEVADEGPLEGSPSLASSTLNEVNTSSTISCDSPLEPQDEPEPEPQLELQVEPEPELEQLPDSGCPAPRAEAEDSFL

With `Cc1[nH]c(/C=C2\C(=O)Nc3ccccc32)c(C)c1CCC(=O)O` [Example 5, 3-[2,4-Dimethyl-5-(2-oxo-1,2-dihydroindol-3-ylidenemethyl)-1H-pyrrol-3-yl]-propionic acid], the “Ki (inhibition constant) against PDGFR, compared to compound 70” value at PDGFR was “significantly smaller”.

For the molecule `O=C(O)CCc1c(/C=C2\C(=O)Nc3ccc(Br)cc32)[nH]c2c1CCCC2` [Compound 65], the “inhibition of tumor growth” value with C6 glioma tumors is given as “approximately 65%”. Also, the “potency in vitro compared to compound 5” value in assay [1] is reported as “almost an order of magnitude greater potency in vitro”.

As for `CC1C(CCC(=O)O)=CNC1/C=C1\C(=O)Nc2ccccc21` (stereo not shown) [Compound 71], the “inhibition of tumor growth” value with C6 glioma tumors came to 51%.

Regarding `COc1cccc(-c2ccc3c(c2)NC(=O)/C3=C\c2[nH]c(C)c(CCC(=O)O)c2C)c1` [Example 27, 3-{5-[6-(3-Methoxy-phenyl)-2-oxo-1,2-dihydroindol-3-ylidenemethyl]-2,4-dimethyl-1H-pyrrol-3-yl}-propionic acid], the IC50 in the assay with HUV-EC-C cells (VEGF) turned out to be 0.99 µM; with HUV-EC-C cells (aFGF), 1.5 µM.

On to `Cc1cccc2c1/C(=C/c1[nH]c(C)c(CCC(=O)O)c1C)C(=O)N2` [Example 21, 3-[2,4-Dimethyl-5-(4-methyl-2-oxo-1,2-dihydroindol-3-ylidene-methyl)-1H-pyrrol-3-yl]-propionic acid], for which the results for the IC50 with HUV-EC-C cells (VEGF) and in the assay with HUV-EC-C cells (aFGF) were 4 µM and 5.6 µM, respectively.

In the case of `Cc1[nH]c(/C=C2\C(=O)Nc3ccc(Cl)cc32)c(C)c1CCC(=O)O` [Example 3, 3-[5-(5-Chloro-2-oxo-1,2-dihydroindol-3-ylidenemethyl)-2,4-dimethyl-1H-pyrrol-3-yl]-propionic acid], the figures for the IC50 in the assay on HUV-EC-C cells (VEGF) and in the assay on HUV-EC-C cells (aFGF) were 0.05 µM and 2.8 µM, respectively.
